ChEMBL document CHEMBL5352395, “The discovery of novel antifungal phenylpyridines derivatives based on CYP53 binding model” (Eur J Med Chem, 2022)
Converted amounts (≈) assume the structure as drawn. The source made the active and inactive calls. The rule behind the calls is not given here.

What was measured:
[1] = system: Pichia kudriavzevii; experiment: Antifungal activity against Candida krusei ATCC 6258 assessed as reduction in fungal growth; format: functional
[2] = system: Candida albicans; experiment: Antifungal activity against Candida albicans ATCC 10231 assessed as reduction in fungal growth; format: functional
[3] = system: Nakaseomyces glabratus; experiment: Antifungal activity against Candida glabrata ATCC 0001 assessed as reduction in fungal growth; format: functional
[4] = system: Aspergillus fumigatus; experiment: Antifungal activity against Aspergillus fumigatus KM8001 assessed as reduction in fungal growth; format: functional
[5] = system: Candida albicans; experiment: Antifungal activity against Candida albicans 17# assessed as reduction in fungal growth; format: functional
[6] = system: Candida albicans; experiment: Antifungal activity against Candida albicans 901 assessed as reduction in fungal growth; format: functional
[7] = Inhibition of CYP53 in Candida albicans ATCC SC5314 assessed as benzoate level at 8 ug/ml incubated for 16 hrs by LC-MS analysis (Rvb=11.4%); format: ADME; set-up: scale not given: the % may be the effect or the level left; settings: at 8 µg/mL
[8] = Inhibition of CYP53 in Candida albicans ATCC SC5314 assessed as 4-hydroxybenzoate level at 8 ug/ml incubated for 16 hrs by LC-MS analysis (Rvb=82.7%); format: ADME; set-up: scale not given: the % may be the effect or the level left; settings: at 8 µg/mL
[9] = Inhibition of CYP53 in Candida albicans ATCC SC5314 assessed as unknown sterol level at 8 ug/ml incubated for 16 hrs by LC-MS analysis (Rvb=5.9%); format: ADME; set-up: scale not given: the % may be the effect or the level left; settings: at 8 µg/mL
[10] = system: Candida albicans; experiment: Induction of apoptosis in Candida albicans ATCC SC5314 assessed as live cells incubated for 24 hrs by Annexin V-FITC/PI staining based flow cytometry method (reference value: 92.69%); format: functional
[11] = system: Candida albicans; experiment: Induction of apoptosis in Candida albicans ATCC SC5314 assessed as mid apoptotic cells incubated for 24 hrs by Annexin V-FITC/PI staining based flow cytometry method (reference value: 1.03%); format: functional
[12] = system: Candida albicans; experiment: Induction of apoptosis in Candida albicans ATCC SC5314 assessed as necrotic cells incubated for 24 hrs by Annexin V-FITC/PI staining based flow cytometry method (reference value: 5.36%); format: functional
[13] = system: Candida albicans; experiment: Induction of apoptosis in Candida albicans ATCC SC5314 assessed as late apoptotic cells incubated for 24 hrs by Annexin V-FITC/PI staining based flow cytometry method (reference value: 1.22%); format: functional
[14] = system: Candida albicans; experiment: Induction of mitochondrial membrane potential loss in Candida albicans ATCC SC5314 assessed as polarized cells at 1 uM/ml incubated for 24 hrs by JC-1 staining based flow cytometry analysis (reference value: 93.17%); format: functional
[15] = Toxicity in ip dosed mouse assessed as AST level in plasma administered on day 2,4,6,8 and 10 (reference value: 60.3 +/- 5.4 IU/L); format: organism-based; settings: in vivo, 240 h, time 10 day
[16] = Toxicity in ip dosed mouse assessed as ALT level in plasma administered on day 2,4,6,8 and 10 (reference value: 35.9 +/- 4.6 IU/L); format: organism-based; settings: in vivo, 240 h, time 10 day
[17] = Toxicity in ip dosed mouse assessed as blood urea nitrogen level in plasma administered on day 2,4,6,8 and 10 (reference value: 7.4 +/ -0.6 mmol/L); format: organism-based; settings: in vivo, 240 h, time 10 day
[18] = system: Candida albicans; experiment: Antifungal activity against Candida albicans ATCC SC5314 assessed as induction of ROS production by measuring increase in fluorescence intensity; format: functional, organism-based
[19] = system: Candida albicans; experiment: Induction of morphological changes in Candida albicans ATCC SC5314 assessed as disappearance of marginal region of fungal cells at 1 uM/ml incubated for 48 hrs by transmission electron microscopy; format: functional, organism-based
[20] = system: Candida albicans; experiment: Induction of morphological changes in Candida albicans ATCC SC5314 assessed as increase in cell permeability at 1 uM/ml incubated for 48 hrs by transmission electron microscopy; format: functional, organism-based
[21] = system: Candida albicans; experiment: Induction of morphological changes in Candida albicans ATCC SC5314 assessed as rupture of cell membranes at 1 uM/ml incubated for 72 hrs by transmission electron microscopy; format: functional, organism-based
[22] = system: Candida albicans; experiment: Induction of morphological changes in Candida albicans ATCC SC5314 assessed as leakage of endogenous substances in fungal cells at 1 uM/ml incubated for 72 hrs by transmission electron microscopy; format: functional, organism-based
[23] = Toxicity in ip dosed mouse assessed as increase in body weight administered for 10 days; format: organism-based; settings: in vivo, 240 h, time 10 day
[24] = Toxicity in ip dosed mouse assessed as pathological damage in lungs administered on day 2,4,6,8,10 and measured on day 12 by H and E staining based analysis; format: organism-based; settings: in vivo, 288 h, time 12 day
[25] = Toxicity in ip dosed mouse assessed as pathological damage in liver administered on day 2,4,6,8,10 and measured on day 12 by H and E staining based analysis; format: organism-based; settings: in vivo, 288 h, time 12 day
[26] = Toxicity in ip dosed mouse assessed as pathological damage in spleen administered on day 2,4,6,8,10 and measured on day 12 by H and E staining based analysis; format: organism-based; settings: in vivo, 288 h, time 12 day
[27] = Toxicity in ip dosed mouse assessed as pathological damage in kidneys administered on day 2,4,6,8,10 and measured on day 12 by H and E staining based analysis; format: organism-based; settings: in vivo, 288 h, time 12 day
[28] = Toxicity in ip dosed mouse assessed as pathological damage in heart administered on day 2,4,6,8,10 and measured on day 12 by H and E staining based analysis; format: organism-based; settings: in vivo, 288 h, time 12 day
[29] = system: Candida albicans; experiment: Antifungal activity against Candida albicans ATCC SC5314 assessed as reduction in fungal cell proliferation by measuring cell count (reference value: 216); format: functional
[30] = system: Candida albicans; experiment: Induction of morphological changes in Candida albicans ATCC SC5314 assessed as reduction in cell wall thickness at 1 uM/ml incubated for 48 hrs by transmission electron microscopy; format: functional, organism-based
[31] = system: Candida albicans; experiment: Induction of morphological changes in Candida albicans ATCC SC5314 assessed as appearance of cell wall and membrane remnants at 1 uM/ml incubated for 96 hrs by transmission electron microscopy; format: functional, organism-based
[32] = system: Candida albicans; experiment: Antifungal activity against Candida albicans ATCC SC5314 infected in mouse assessed as reduction in fungal infection administered intraperitoneally on day 2,4,6,8 and 10 and measured after 12 days; format: functional, organism-based; settings: route ip, time 12.0 day
[33] = system: Candida albicans; experiment: Antifungal activity against Candida albicans ATCC SC5314 infected in mouse assessed as reduction in fungal growth in infection region administered intraperitoneally on day 2,4,6,8 and 10 and measured after 12 days by H and E/GMS staining based analysis; format: functional, organism-based; settings: route ip, time 12.0 day
[34] = system: Candida albicans; experiment: Antifungal activity against Candida albicans ATCC SC5314 infected in mouse assessed as recovery of regular cell distribution administered intraperitoneally on day 2,4,6,8 and 10 and measured after 12 days by H and E/GMS staining based analysis; format: functional, organism-based; settings: route ip, time 12.0 day
[35] = system: Candida albicans; experiment: Antifungal activity against Candida albicans ATCC SC5314 infected in mouse assessed as disappearance of nuclear aggregation phenomenon administered intraperitoneally on day 2,4,6,8 and 10 and measured after 12 days by H and E/GMS staining based analysis; format: functional, organism-based; settings: route ip, time 12.0 day
[36] = system: Candida albicans; experiment: Antifungal activity against Candida albicans ATCC SC5314 assessed as reduction in fungal cell proliferation by measuring cell count (reference value: 235); format: functional

CC1CCN(C(=O)c2ccc(C(=O)NCC(=O)Nc3ccncc3)cc2)CC1
MIC [1]: 0.5 µg/mL (≈ 1.31 µM)
MIC [2]: 1 µg/mL (≈ 2.63 µM)
MIC [3]: 2 µg/mL (≈ 5.26 µM)
MIC [4]: 4 µg/mL (≈ 10.5 µM)
MIC [5]: 4 µg/mL (≈ 10.5 µM)
MIC [6]: 4 µg/mL (≈ 10.5 µM)

CC1CCN(C(=O)c2ccc(C(=O)NC(C)C(=O)Nc3ccncc3)cc2)CC1 (stereo unspecified)
MIC [1]: 1 µg/mL (≈ 2.54 µM)
MIC [2]: 0.5 µg/mL (≈ 1.27 µM)
MIC [3]: 0.5 µg/mL (≈ 1.27 µM)
MIC [4]: 2 µg/mL (≈ 5.07 µM)
MIC [5]: 2 µg/mL (≈ 5.07 µM)
MIC [6]: 2 µg/mL (≈ 5.07 µM)
Activity [7]: 68.5%
Activity [8]: 23.3%
Activity [9]: 8.2%
Activity [10]: 58.17%
Activity [11]: 0.31%
Activity [12]: 40.61%
Activity [13]: 0.91%
Activity [14]: 68.3%
Activity [15]: 53.7 IU/L
Activity [16]: 47.4 IU/L
Activity [17]: 6.1 mmol/L
Activity [18]: Active
Activity [19]: Active
Activity [20]: Active
Activity [21]: Active
Activity [22]: Active
Activity [23]: Toxic
Activity [24]: Non-Toxic
Activity [25]: Non-Toxic
Activity [26]: Non-Toxic
Activity [27]: Non-Toxic
Activity [28]: Non-Toxic
Activity [29]: 123
Activity [30]: Active
Activity [31]: Active
Activity [32]: Active
Activity [33]: Active
Activity [34]: Active
Activity [35]: Active

CCC(C)C(NC(=O)c1ccc(C(=O)OC)cc1)C(=O)Nc1ccncc1 (stereo unspecified)
MIC [1]: 2 µg/mL (≈ 5.41 µM)
MIC [2]: 4 µg/mL (≈ 10.8 µM)
MIC [3]: 4 µg/mL (≈ 10.8 µM)
MIC [4]: > 16 µg/mL
MIC [5]: 2 µg/mL (≈ 5.41 µM)
MIC [6]: 4 µg/mL (≈ 10.8 µM)

CCC(C)C(NC(=O)c1ccc(/C=C/C(=O)N2CCC(C)CC2)cc1)C(=O)Nc1ccncc1 (stereo unspecified)
MIC [1]: 1 µg/mL (≈ 2.16 µM)
MIC [2]: 2 µg/mL (≈ 4.32 µM)
MIC [3]: 2 µg/mL (≈ 4.32 µM)
MIC [4]: > 16 µg/mL
MIC [5]: 4 µg/mL (≈ 8.65 µM)
MIC [6]: 8 µg/mL (≈ 17.3 µM)

CC1CCN(C(=O)/C=C/c2ccc(C(=O)NC(C)C(=O)Nc3ccncc3)cc2)CC1 (stereo unspecified)
MIC [1]: 4 µg/mL (≈ 9.51 µM)
MIC [2]: 2 µg/mL (≈ 4.76 µM)
MIC [3]: 4 µg/mL (≈ 9.51 µM)
MIC [4]: 4 µg/mL (≈ 9.51 µM)
MIC [5]: 8 µg/mL (≈ 19 µM)
MIC [6]: 4 µg/mL (≈ 9.51 µM)

CC1CCN(C(=O)/C=C/c2ccc(C(=O)NCC(=O)Nc3ccncc3)cc2)CC1
MIC [1]: 2 µg/mL (≈ 4.92 µM)
MIC [2]: 1 µg/mL (≈ 2.46 µM)
MIC [3]: 1 µg/mL (≈ 2.46 µM)
MIC [4]: 8 µg/mL (≈ 19.7 µM)
MIC [5]: 8 µg/mL (≈ 19.7 µM)
MIC [6]: 4 µg/mL (≈ 9.84 µM)

OC(Cn1cncn1)(Cn1cncn1)c1ccc(F)cc1F [FLUCONAZOLE]
MIC [1]: 0.5 µg/mL (≈ 1.63 µM)
MIC [2]: 0.5 µg/mL (≈ 1.63 µM)
MIC [3]: 0.5 µg/mL (≈ 1.63 µM)
MIC [4]: 4 µg/mL (≈ 13.1 µM)
MIC [5]: > 16 µg/mL
MIC [6]: > 16 µg/mL

CCC(C)C(NC(=O)c1ccc(C(=O)N2CCC(C)CC2)cc1)C(=O)Nc1ccncc1 (stereo unspecified)
MIC [1]: 1 µg/mL (≈ 2.29 µM)
MIC [2]: 1 µg/mL (≈ 2.29 µM)
MIC [3]: 2 µg/mL (≈ 4.58 µM)
MIC [4]: 8 µg/mL (≈ 18.3 µM)
MIC [5]: 4 µg/mL (≈ 9.16 µM)
MIC [6]: 8 µg/mL (≈ 18.3 µM)

COC(=O)c1ccc(C(=O)NCC(=O)Nc2ccncc2)cc1
MIC [1]: 0.5 µg/mL (≈ 1.6 µM)
MIC [2]: 1 µg/mL (≈ 3.19 µM)
MIC [3]: 1 µg/mL (≈ 3.19 µM)
MIC [4]: 4 µg/mL (≈ 12.8 µM)
MIC [5]: 2 µg/mL (≈ 6.38 µM)
MIC [6]: 2 µg/mL (≈ 6.38 µM)
Activity [7]: 64.1%
Activity [8]: 29.5%
Activity [9]: 6.4%
Activity [10]: 65.51%
Activity [11]: 0.46%
Activity [12]: 33.06%
Activity [13]: 0.97%
Activity [14]: 65.59%
Activity [15]: 68.4 IU/L
Activity [16]: 42.8 IU/L
Activity [17]: 6.6 mmol/L
Activity [23]: Toxic
Activity [24]: Non-Toxic
Activity [25]: Non-Toxic
Activity [26]: Non-Toxic
Activity [27]: Non-Toxic
Activity [28]: Non-Toxic
Activity [36]: 112
Activity [32]: Active
Activity [33]: Active
Activity [34]: Active
Activity [35]: Active

COC(=O)c1ccc(C(=O)NC(C)C(=O)Nc2ccncc2)cc1 (stereo unspecified)
MIC [1]: 1 µg/mL (≈ 3.05 µM)
MIC [2]: 0.5 µg/mL (≈ 1.53 µM)
MIC [3]: 2 µg/mL (≈ 6.11 µM)
MIC [4]: 4 µg/mL (≈ 12.2 µM)
MIC [5]: 4 µg/mL (≈ 12.2 µM)
MIC [6]: 1 µg/mL (≈ 3.05 µM)
